Broadly, the pKa is the pH at which an ionisable group is half protonated. High values mean a weaker acid or stronger base, low ones a stronger acid or weaker base.

One molecule from patent publication EP0369733A2, “Fluorescent indicator dyes for alkali metal cations, their preparation and use” (THE REGENTS OF THE UNIVERSITY OF CALIFORNIA, priority 1988, dated 1990) can be followed below.

The nature of data set [1]: Cation titration followed by absorbance or fluorescence excitation spectra: Na⁺ binding.
Data set [2] can be described thus: Cation titration followed by absorbance or fluorescence excitation spectra: K⁺ binding. Particulars: inert background cations such as tetramethylammonium or Cs⁺, high pH. As to the method: (§1) • Footnote a: For molecular structures, see Fig. 1. • Footnote b: Except where otherwise noted, these dissociation constants were measured with the chelator dissolved in 0.1 M tetramethylammonium chloride, at a pH held high enough with 1-5 mM tris(hydroxymethyl)aminomethane for protonation to be insignificant. The absorbance spectrum, or the fluorescence excitation spectrum for those compounds (2GG, 2NN, 2OO, 2PP, 3NN) with acronyms was measured as a function of the concentration of cation added as a solid or concentrated aqueous solution of the halide salt. No correction has been made for the changing ionic strength of the solution, which started from 0.1 M and increased, but the absorbances and fluorescence amplitudes were applied for dilution of the dye and any slight quenching due to high concentrations of Cl⁻. • Footnote c: These protonation constants were determined in 0.1 M tetramethylammonium chloride, 10 mM tris(hydroxymethyl)aminomethane, titrated with 5 M H₃PO₄ to successively lower pH values measured with a Radiometer PHM84 meter. […] The first number is the wavelength in nanometers, followed in parentheses by 10⁻³ x the corresponding extinction coefficient, M⁻¹cm⁻¹. […] Emission maxima are not corrected for the spectral sensitivity of the emission detection. Quantum efficiencies were measured (13) by comparing the integral of the corrected emission spectrum with the corresponding integral for a solution of quinine bisulfate in 1 N H₂SO₄ of matched absorbance at the excitation wavelength.
Affinities for other cations were usually measured by titrating aqueous solutions of the indicator with metal chlorides added either as solid or from concentrated stock solutions, taking care to minimize dilution and correct for it. […] This convenient titration procedure had the slight disadvantage that the ionic strength was not constant, especially when large quantities of a salt had to be added due to weak affinities. […]

A short description of data set [3]: Cation titration followed by absorbance or fluorescence excitation spectra: Mg²⁺ binding. The conditions noted are these: 0.1 M tetramethylammonium chloride, 1-5 mM tris(hydroxymethyl)aminomethane, high pH, read-out: Dissociation constants (Kd) in mM for Mg²⁺. As to the method:
as §1
(§2) Affinities for other cations were usually measured by titrating aqueous solutions of the indicator with metal chlorides added either as solid or from concentrated stock solutions, taking care to minimize dilution and correct for it. A convenient way to mass-produce premeasured micromole to millimole aliquots of solid NaCl or KCl was to pipet saline solutions into polypropylene micro test tubes and evaporate the water in an oven. The standard ionic background was again 100 mM tetramethylammonium chloride, usually with a few mM of tris(hydroxymethyl)-aminomethane base to hold the pH high enough (pH 8-9) to insure that protonation was negligible. This convenient titration procedure had the slight disadvantage that the ionic strength was not constant, especially when large quantities of a salt had to be added due to weak affinities. […] When constant ionic strength was desired, the chelator was made up at identical concentrations in matched solutions of NaCl, KCl, or tetramethylammonium chloride, then these stocks were mixed in the desired proportions.

Data set [4] can be described thus: Cation titration followed by absorbance or fluorescence excitation spectra: Li⁺ binding. Particulars: for Kd: 0.1 M tetramethylammonium chloride, 1-5 mM tris(hydroxymethyl)aminomethane, high pH, read-out: Dissociation constants (Kd) in mM for Li⁺. How it is done: as §1
as §2, with “proportions. All measurements were made at room temperature (22°, ±2° C).” for “proportions.”

The nature of data set [5]: Fluorescence excitation/emission spectra and quantum efficiency. Format: physicochemical. The conditions noted are these: for Quantum efficiency -Na⁺ / Quantum efficiency +Na⁺: relative to quinine bisulfate in 1 N H₂SO₄ (0.55); for Quantum efficiency +Na⁺: saturating Na⁺.
Data set [6] is described as follows: physchem. The conditions noted are these: 0.1 m tetramethylammonium chloride.
Protocol: • Footnote a: For molecular structures, see Fig. 1. • Footnote b: Except where otherwise noted, these dissociation constants were measured with the chelator dissolved in 0.1 M tetramethylammonium chloride, at a pH held high enough with 1-5 mM tris(hydroxymethyl)aminomethane for protonation to be insignificant. […] No correction has been made for the changing ionic strength of the solution, which started from 0.1 M and increased, but the absorbances and fluorescence amplitudes were applied for dilution of the dye and any slight quenching due to high concentrations of Cl⁻. • Footnote c: These protonation constants were determined in 0.1 M tetramethylammonium chloride, 10 mM tris(hydroxymethyl)aminomethane, titrated with 5 M H₃PO₄ to successively lower pH values measured with a Radiometer PHM84 meter.
Proton dissociation constants of the chelators were measured by spectrophotometry or spectrofluorometry of buffered solutions, containing either 100 mM tetramethylammonium chloride as inert supporting electrolyte, or 121.5 mM K⁺, 13.5 mM Na⁺, and 1 mM Mg²⁺ to simulate the cation environment of vertebrate cytoplasm (14). Traces of UV-absorbing impurities in the tetramethylammonium chloride (Alfa Inorganics) were removed by filtration through acid-­washed activated charcoal. The concentration of the tetramethylammonium chloride was then measured by chloride titration, and the absence of significant Na⁺ contamination was verified with a sodium-selective glass electrode (Microelectrodes Inc.). When the chelators contained two protonatable nitrogens, the curve of absorbance or fluorescence versus pH was analyzed by computerized least-squares fitting to the equations for two arbitrary proton equilibria (15), with the added assumption that the two protonations each caused the same change in extinction coefficient or fluorescence.
Data set [7] is described as follows: physchem. Particulars: 126 mm kcl, 14 mm nacl.
Protocol: The lowest curve ([Na⁺] = 0) was obtained with 5 µM SBFI in 130 mM KCl, 10 mM MOPS, KOH to pH 7.05, approximately 135 mM total K⁺. The highest curve ([Na⁺] = 135 mM) was analogously recorded from 5 µM SBFI in 130 mM NaCl, 10 mM MOPS, NaOH to pH 7.05. The intermediate curves from 1.35 to 94.5 mM Na⁺ were obtained by successively 1/100, 1/99, 3/98, 1/19, 1/9, 1/4, and 1/2 of the K⁺-rich SBFI solution by the SBFI in Na medium. The excitation bandwidth was 1.85 nm; emission was collected at 500 nm with 9.3 nm bandwidth. […] The lowest curve was obtained in 130 mM NaCl, 10 mM MOPS, NaOH to pH 7.05. The highest curve was in 130 mM KCl, 10 mM MOPS, KOH to pH 7.05. The intermediate curves with 13.5 to 112.5 mM K⁺ were obtained by iteratively replacing 1/10, 1/9, 1/6, 1/4, 1/3, and 1/2 of the low K⁺ medium by the 135 mM KCl solution of PBFP.
Proton dissociation constants of the chelators were measured by spectrophotometry or spectrofluorometry of buffered solutions, containing either 100 mM tetramethylammonium chloride as inert supporting electrolyte, or 121.5 mM K⁺, 13.5 mM Na⁺, and 1 mM Mg²⁺ to simulate the cation environment of vertebrate cytoplasm (14). […] When the chelators contained two protonatable nitrogens, the curve of absorbance or fluorescence versus pH was analyzed by computerized least-squares fitting to the equations for two arbitrary proton equilibria (15), with the added assumption that the two protonations each caused the same change in extinction coefficient or fluorescence. This assumption was based on the presence of two identical chromophores in each chelator and produced good fits to the experimental data.

As for `COc1cc2cc(-c3ccc(C(=O)O)cc3C(=O)O)oc2cc1N1CCOCCOCCN(c2cc3oc(-c4ccc(C(=O)O)cc4C(=O)O)cc3cc2OC)CCOCC1` [Compound 2PP, N,N-bis-(2-(2,4-dicarboxyphenyl)-5-methoxybenzofuran-6-yl)-diaza[15]-crown-5], the Kd in data set [1] (0.1 M tetramethylammonium chloride, 1-5 mM tris(hydroxymethyl)aminomethane, pH high enough for protonation to be insignificant, 22°, read-out: Dissociation constants (Kd) in mM for Na⁺) was 7.4 mM; in data set [1] (summary statement, conditions not specified, read-out: dissociation constant (Na⁺), range achieved) it was 5 to 20 mM; in data set [3] (listed as 2PP (SBFI)) it was 60 mM; in data set [3] (listed as SBFI) it was roughly 60 mM; in data set [4] (listed as 2PP (SBFI)) it was 68 mM; in data set [4] (listed as SBFI) it was 67 mM. Besides, the “Na⁺ affinity” value in data set [1] (association constant, inert background cation (tetramethylammonium)) turned out to be 166 M⁻¹. Further, the “K⁺ affinity” value in data set [2] stood at 7 M⁻¹. In addition, the “Li⁺ affinity” value in data set [4] came to 15 M⁻¹. Further, the “Emission maxima -Na⁺” value in data set [5] (100 mM tetramethylammonium chloride, no Na⁺, not corrected for detector sensitivity) is reported as 551 nanometers. For the same molecule, the “emission peak with Ca²⁺” value in data set [5] (Ca²⁺ bound, large hypsochromic shift) is reported as 432 nm. Moreover, the “excitation peak wavelength without Na⁺” value in data set [5] (Na⁺-K⁺ mixtures, sum 135 mM, K⁺ only) is 344 nm. Also, the “excitation peak wavelength with Na⁺” value in data set [5] (Na⁺-K⁺ mixtures, sum 135 mM, Na⁺ bound) is on record as 336 nm. Besides, the “Quantum efficiency -Na⁺” value in data set [5] (no Na⁺, listed as 2PP (SBFI)) was “.045”; in data set [5] (no Na⁺, listed as SBFI), 0.045. Besides, the “Emission maxima +Na⁺” value in data set [5] (saturating NaCl, not corrected for detector sensitivity) turned out to be 525 nanometers. For the same molecule, the “Quantum efficiency +Na⁺” value is listed as “.063” in data set [5] (listed as 2PP (SBFI)) and 0.08 in data set [5] (listed as SBFI). Further, the pKa was 6.1 in the data set “physchem [6]” and 6.09 in the data set “physchem [7]”.
